Source: patent US10723694B2, “Propargyl-functionalized macrocyclic compounds” (KUWAIT UNIVERSITY, priority 2018, dated 2020)

Tests used:
Assay type in all cases: physicochemical
[1] = Fluorescence lifetime by time correlated single photon counting (TCSPC); conditions: DMF
Experimental: Fluorescence lifetime (τF) refers to the average time that a molecule stays in its excited state before returning to its ground state by photon emission. The fluorescence lifetime values of the AzaPc1/Pc2-Pc5 compounds were determined by using time correlated single photon counting (TCSPC). All time-resolved fluorescence studies were carried out for the exemplary compounds in solution in DMF, and the fluorescence decays of the macrocycles were concluded in mono exponential curves.

[2] = Fluorescence excitation and emission spectra in DMF; conditions: for Stokes shift ΔStokes: difference between excitation and emission maxima
Experimental: Fluorescence behaviors of the AzaPc1/Pc2-Pc5 compounds were evaluated in DMF solutions. FIGS. 12A-12E show absorption, fluorescence emission and excitation spectra of these complexes.
Excitation maxima appear at 629 nm for AzaPc1, 679 nm for Pc2, 678 nm for Pc3, 682 nm for Pc4 and 700 nm for Pc5 in DMF. Emission maxima appear at 639 nm, 683 nm, 686 nm, 688 nm and 707 nm for AzaPc1/Pc2-Pc5, respectively. The observed Stokes' shifts, which are differences between the excitation and emission wavelength maxima, are between 4 and 10 nm for all of the zinc (II) complexes (Table 1). The observed Stokes' shifts are consistent with those of typical zinc (II) phthalocyanine complexes.

[3] = Singlet oxygen quantum yield, chemical method with DPBF quencher; conditions: DMF, 414 nm
Text: Transferring of energy from a triplet state of a photosensitizer such as Pc to ground state molecular oxygen leads to the production of singlet oxygen. There is a necessity of high efficiency of energy transfer between the excited triplet state of photosensitizer and the ground state of oxygen in order to generate large amounts of singlet oxygen, essential for PDT applications. The singlet oxygen quantum yield (ΦA) values give the amount of the generated singlet oxygen. This value is an indication of the potential provided by the compounds as photosensitizers in applications where singlet oxygen is required. The ΦΔ values for AzaPc1/Pc2-Pc5 were determined in DMF by a chemical method using 1,3-diphenylisobenzofuran (DPBF) as a quencher. The disappearance of DPBF at 414 nm was monitored using UV-Vis spectrophotometer. Many factors can be responsible for the magnitude of the determined singlet oxygen quantum yield, including triplet excited state energy, ability of substituents and solvents to quench the singlet oxygen, the triplet excited state lifetime and the efficiency of the energy transfer between the triplet excited state and the ground state of oxygen.

[4] = Ground state electronic absorption spectra (UV-Vis) in DMF; conditions: for log ε at λmax / λmax (Q band absorption): in DMF
Experimental: Electronic absorption, which is measured by UV-Vis spectroscopy, is one of the best spectroscopic techniques for determination of Pc formation and characterization of Pc compounds. Generally, two absorption bands are observed for Pc structures in their electronic absorption spectra. One band, known as Q, is observed at around 600-750 nm due to the π→π* transitions from the highest occupied molecular orbital (HOMO) to the lowest unoccupied molecular orbital (LUMO) of the Pc ring, while the other band, known as B, or the Soret band, is observed at around 300-450 nm due to transitions from deeper it levels to the LUMO. The ground state electronic absorption spectra of the studied novel Pcs were measured in DMF solution.
The ground state electronic absorption spectra show monomeric behavior evidenced by single (narrow) Q band absorptions, which is typical for metallated complexes. The Q bands appear around 680 nm for the symmetric Pc2 and both asymmetric Pc3 and Pc4 in DMF (Table 1). On the other hand, the non-peripheral Pc5 show approximately 20 nm red-shifted Q band absorption at 700 nm when compared to the peripheral counterparts in the solvent (Table 1). The observed red spectral shifts are typical for Pc molecules with substituents at the non-peripheral positions and are presumably due to linear combinations of the atomic orbitals (LCAO) coefficients at the non-peripheral positions of the HOMO being greater than those at the peripheral positions. As a result, the HOMO level is destabilized more at the non-peripheral site than it is at the peripheral one. Essentially, the energy gap (ΔE) between the HOMO and LUMO becomes smaller, resulting in a bathochromic shift. The 49 nm blue shift for AzaPc1 is caused by the additional nitrogen atoms instead of CH groups in the Pc macrocyclic system. The B-bands are broad due to the superimposition of the B1 and B2 bands in the 340 to 380 nm region.

[5] = Fluorescence quantum yield determination; conditions: DMF per text (Table 2 title prints DMSO)
Text: Fluorescence emission occurs when an orbital electron of a photosensitizer relaxes from its singlet state to ground state upon emitting a photon of light. Fluorescence quantum yield (ΦF) indicates a measure of the efficiency of the fluorescence process and is defined as the ratio of the number of photons emitted to the number of photons absorbed. The fluorescence quantum yields (ΦF) may be determined using established methods described in existing literature. The ΦF values of the present AzaPc1/Pc2-Pc5 compounds are typical for those phthalocyanine compounds (Table 2). Particularly, ΦF values were measured to be 0.11 for AzaPc1, 0.16 for Pc2, 0.17 for Pc3, 0.14 for Pc4 and 0.11 for Pc5 in the exemplary DMF solvent system.

[6] = Photodegradation under light irradiation; conditions: DMF
Text: Photodegradation is an indicator of the stability of compounds, which is useful for determining the photosensitizing ability of the compounds as PDT agents. The stability of photosensitizers under light irradiation is important for photochemical processes such as PDT because photosensitizers need to survive for a specific period in the body. Photodegradation degree can be detected by photodegradation quantum yield (Φd), which depends on structure, light intensity, solvent used and concentration of a compound of interest. Photodegradation of a compound under light irradiation can be used to study the compound stability, which is important for those molecules intended for the application in photocatalytic reactions. Collapse of absorption spectra without any distortion of the shape of the absorption spectra confirms photo-degradation not associated with photo-transformation into different forms of Pcs absorbing light in the visible region. The spectral changes for all of the exemplary AzaPc1/Pc2-Pc5 compounds were determined in response to light irradiation, and photodegradation occurred without phototransformation, because only Q and B bands were decreased, i.e., no new band formation was observed.
Pc derivatives and their macrocyclic analogs generate singlet oxygen when they are illuminated by an appropriate light. The formed […] via photooxidation reactions. Generally, photodegradation of Pc/Pc-analog compounds by light irradiation results in formation of the phthalamide residue. The photodegradation behavior of AzaPc1/Pc2-Pc5 in DMF were determined. The Φd values of these novel systems are on the order of 10^−4 (Table 2), consistent with values for other Pcs containing different metals and substituents.

[7] = Aggregation studies (UV-Vis) in organic solvents and at different concentrations
Text: Macrocycle Pcs generate high aggregation tendencies due to the intermolecular interactions that take place between their 18 π-electrons. Accordingly, this self-association process would minimize their solubility in most solvent systems and therefore affect their spectroscopic, photophysical, photochemical, and electrochemical properties. Generally, aggregation is highly dependent on the concentration, temperature, nature of the substituents and/or their position and orientation with respect to the Pc skeleton, nature of the solvent media, and the central metal ion in the Pc-cores.
Pc molecules can form two types of aggregates in dissolved systems—H-type and J-type-depending on the nature, position and/or orientation of the substituents. In general, Pcs form H-type aggregates in solution, whereas J-type aggregates occur rarely. The formation of J-type aggregates among Pc structures is significant, since J-type aggregation is photoactive, while H-type aggregation is not.
The aggregation properties for the AzaPc1/Pc2-Pc5 compounds were determined in different organic solvents, namely, DCM, chloroform, DMF, DMSO, ethanol, methanol, THF and toluene.
Aggregation behaviors for the AzaPc1/Pc2-Pc5 compounds were also investigated in DMF at different concentrations in order to establish a suitable concentration for further photophysical/photochemical studies.

Compound	Fluorescence lifetime τF [1]	λEm (emission maximum) [2]	λEx (excitation maximum) [2]	Stokes shift ΔStokes [2]	Singlet oxygen quantum yield ΦΔ [3]	Blue shift of Q band absorption ([4]; DMF, aza analogue versus Pc macrocycle)	log ε at λmax [4]	λmax (Q band absorption) [4]	Fluorescence quantum yield ΦF [5]	Photodegradation quantum yield Φd (×10^−4) [6]	Aggregation in methanol [7]
C#CCOCc1cc(C)cc(COCC#C)c1Oc1nc2c(nc1Oc1c(COCC#C)cc(C)cc1COCC#C)C1=Nc3c4nc(Oc5c(COCC#C)cc(C)cc5COCC#C)c(Oc5c(COCC#C)cc(C)cc5COCC#C)nc4c4[n]3[Zn][n]3c(c5nc(Oc6c(COCC#C)cc(C)cc6COCC#C)c(Oc6c(COCC#C)cc(C)cc6COCC#C)nc5c3=NC3=NC(=N4)c4nc(Oc5c(COCC#C)cc(C)cc5COCC#C)c(Oc5c(COCC#C)cc(C)cc5COCC#C)nc43)=NC2=N1 [AzaPc1]	2.46 ns	639 nm	629 nm	10 nm	0.63	49 nm	5.07	629 nm	0.14	4.30 ×10^−4	–
C#CCOCc1cc(C)cc(COCC#C)c1Oc1cc2c(cc1Oc1c(COCC#C)cc(C)cc1COCC#C)C1=Nc3c4cc(Oc5c(COCC#C)cc(C)cc5COCC#C)c(Oc5c(COCC#C)cc(C)cc5COCC#C)cc4c4[n]3[Zn][n]3c(c5cc(Oc6c(COCC#C)cc(C)cc6COCC#C)c(Oc6c(COCC#C)cc(C)cc6COCC#C)cc5c3=NC3=NC(=N4)c4cc(Oc5c(COCC#C)cc(C)cc5COCC#C)c(Oc5c(COCC#C)cc(C)cc5COCC#C)cc43)=NC2=N1 [Pc2]	3.30 ns	683 nm	679 nm	4 nm	0.60	–	5.33	–	0.16	1.58 ×10^−4	–
C#CCOCc1cc(C)cc(COCC#C)c1Oc1cc2c(cc1Cl)C1=Nc3c4cc(Oc5c(COCC#C)cc(C)cc5COCC#C)c(Cl)cc4c4[n]3[Zn][n]3c(c5cc(Cl)c(Oc6c(COCC#C)cc(C)cc6COCC#C)cc5c3=NC3=NC(=N4)c4cc(Oc5c(COCC#C)cc(C)cc5COCC#C)c(Cl)cc43)=NC2=N1 [Pc3]	2.84 ns	686 nm	678 nm	8 nm	0.60	–	5.33	–	0.17	1.40 ×10^−4	–
C#CCOCc1cc(C)cc(COCC#C)c1Oc1ccc2c(c1)C1=NC2=Nc2c3cc(Oc4c(COCC#C)cc(C)cc4COCC#C)ccc3c3[n]2[Zn][n]2c(c4ccc(Oc5c(COCC#C)cc(C)cc5COCC#C)cc4c2=NC2=NC(=N3)c3cc(Oc4c(COCC#C)cc(C)cc4COCC#C)ccc32)=N1 [Pc4]	3.37 ns	688 nm	682 nm	6 nm	0.57	–	5.21	–	0.14	1.12 ×10^−4	small H-type aggregates were detected
[Zn+2].c1ccc2c(c1)-c1nc-2nc2[n-]c(nc3nc([n-]c4nc(n1)-c1ccccc1-4)-c1ccccc1-3)c1ccccc21 [Std-ZnPc, zinc(II) phthalocyanine, reference compound]	1.03 ns	676 nm	670 nm	6 nm	0.56	–	5.37	670 nm	0.17	0.23 ×10^−4	–
